# Measured values reported in patent publication US12304813B2, “Sodium thiosulfate-containing pharmaceutical compositions” (Hope Medical Enterprises, Inc., priority 2009, dated 2025).
# Assays:
# vascular calcification = conditions: literature report, Kidney International 2008; cited from earlier work
# [1] = tested on: platinum-induced nephrotoxicity; conditions: associated with platinum-containing chemotherapeutic agents; Current Opinions in Oncology 1995; cited from earlier work
# [2] = tested on: platinum-induced ototoxicity; conditions: associated with platinum-containing chemotherapeutic agents; Current Opinions in Oncology 1995; cited from earlier work
# [3] = Example 1 batch
# Procedure: In another embodiment, the sodium thiosulfate provided herein has a pH between about 6 to about 8 when measured in a 10% solution at 25° C. In certain embodiments, the pH of the sodium provided herein is measured using a pH meter. In certain embodiments, the pH of the sodium thiosulfate provided herein is determined according to Method 791 in USP XXXII (2009).
# calciphylaxis = conditions: literature report, Archives of Dermatology 2007; cited from earlier work
smiles,measurement,setting,value
O.O.O.O.O.O=S([O-])([O-])=S.[Na+].[Na+] [sodium thiosulfate pentahydrate],treatment for vascular calcification,vascular calcification,effective treatment
same,treatment to prevent platinum-induced nephrotoxicity,[1],effective treatment
same,treatment to prevent platinum-induced ototoxicity,[2],effective treatment
same,pH of 10% solution at 25° C.,[3],6.6
same,treatment for calciphylaxis,calciphylaxis,effective treatment
